Ends that are not written are not given here.
Legend:
[1] = system: RAW 264.7 cell line; experiment: Confocal microscopy of FITC-labeled B11 peptide binding to RAW 264.7 cell line; format: cell-based, murine; settings: FIG. 5A
Procedure: (§1) The cell line RAW 264.7 obtained from the American Type Culture Collection was grown in Dulbecco's modified Eagle's medium (DMEM) supplemented with 10% FCS, 1% penicillin, 1% L-glutamine, 1% nonessential amino acids, and 1% pyruvate (Biological Industries, Beit Haemek, Israel) to an 80% confluent culture at 37° C. in an atmosphere enriched with 5% CO2.
B11 peptide (50 μg) was conjugated to FITC (Biotium, Hayward, Calif.) as described by Sethi et al., [Sethi, K. K., et al. Cell Motil Cytoskeleton 52:231-241 (2002)]. For confocal microscopy, RAW 264.7 cells were grown in 8-well glass slides, Chamber Slide™ (Nunc), as described above. Cells were washed three times in cold PBS and incubated with the FITC-labeled mimotope for 5 min at 4° C. in serial dilutions of 1:2-1:100 in cold PBS. Slides were imaged immediately with a Zeiss 410 confocal laser scanning microscope.

[2] = system: RAW 264.7 cell line; experiment: FACS analysis of FITC-labeled mimotope binding to RAW 264.7 cell line; format: cell-based, murine
Procedure: as §1
RAW 264.7 cells were grown in a 250-ml flask, washed 3 times in cold PBS, and harvested. Cells were then incubated for 15 min at 37° C., with the FITC-labeled peptide diluted 1:50, then washed 3 times in cold PBS. The fluorescence levels of 10,000 cell counts were determined by FACS (Becton Dickinson, Franklin Lakes, N.J.) and analyzed by CELLQuest™ software. Assay of competitive binding between mannose and the FITC-labeled B11 peptide was performed according to Nguyen and Hildreth, [Nguyen, D. G., and Hildreth, J. E. Eur J Immunol 33:483-493 (2003)].

[3] = system: IgG antibodies in sera of Mtb-infected mice; format: binding, BALB/c mice
[4] = system: CS40 anti-ManLAM mAb; experiment: ELISA competition vs. ManLAM for CS40 mAb; format: binding; settings: 50 μg/ml of peptide; FIG. 1B
Procedure: Binding efficacy of the amino acid molecule to ManLAM binding antibodies may be evaluated by determining the magnitude of OD decrease when serial dilutions of phage clones/amino acid molecule are incubated with CS40 mAb. The phage clones/amino acid molecule with a higher affinity to mAb will show maximum inhibition of the binding of the mAb to ManLAM with the lowest number of phage particles or lowest amount of amino acid molecule, respectively.
ELISA competition assay was performed according to Kaur et al., [Kaur, D., et al. Microbiology 148:3049-3057 (2002)]. Briefly, plates were coated with 0.5 μg/well ManLAM. Plates were blocked as described above. The CS40 mAb (diluted 1:2000) was mixed with various concentrations of either phage particles in TBS/1% BSA ([…]) or peptides in PBS/1% BSA (0-200 μg/well). […] After washing (PBS), the ELISA procedure was performed as described above. Samples were all tested in triplicate
Efficiency of binding was evaluated by the magnitude of OD decrease when serial dilutions of phage clones were incubated with the CS40 mAb.

[5] = system: serum antibodies of TB patients; experiment: Direct ELISA of human sera on B11 peptide or ManLAM coated plates; settings: FIG. 4
Procedure: Direct ELISA assays were performed by coating 96-well ELISA plates (O/N at 4° C.) with 5-20 μg peptide per well in PBS ManLAM 5 μg/well (50 μl/well). The plates were washed twice in phosphate buffered saline (PBS), blocked with PBS/1% BSA and then washed twice (PBS). Sera diluted in PBS/0.5% BSA (1:50 or 1:200) or CS40 mAb (1:2000) (50 μl per well) was added and incubated for 1 h at 37° C. After washing, alkaline phosphatase-labeled goat anti-mouse immunoglobulin (Sigma, St. Louis, Mo.) was added. Following 90-min incubation at 37° C., p-nitrophenyl phosphate (KPL, Gaithersburg, Md.) was added to the plates, and optical density was measured at 405 nm using ELISA reader (ELX-800UV, Bio-Tec instruments, Winooski, Vt.). In all ELISA procedures, samples were tested in triplicate.
The presence of serum antibodies in sera of TB patients that bind the B11 peptide was tested. […] Using ELISA, sera from Bacillus Calmette Guerin (BCG)-vaccinated individuals (n=10) was tested, as it is sometimes difficult to distinguish BCG-vaccinated individuals from TB patients [Ciesielski, S. D., J Fam Pract 40:76-80 (1995)].

[6] = system: CS40 mAb; experiment: Direct peptide ELISA with CS40 mAb; format: binding; settings: synthetic peptide coated plates

Q: Which “binding to macrophage cell line RAW 264.7 by confocal microscopy” value [1] does the source give for “FITC-conjugated B11 peptide: B11 peptide conjugated to FITC (ISLTEWSMWYRH; also: FITC-conjugated, position not given here)” here?
A: bound

Q: What about the “effect of D-mannose on binding to macrophages (FACS)” value ([2]; 0.125 M D-mannose added, FIG. 5C) of the same substance?
A: inhibited

Q: And the “binding to macrophage cell line RAW 264.7 by FACS analysis” value ([2]; FITC-labeled peptide diluted 1:50, FIG. 5B)?
A: bound

Q: Which “binding properties to ManLAM-binding antibodies compared with original peptide” value ([3]; ELISA with extra cysteine at the amino terminus, data not shown) does the source give for “CISLTEWSMWYRH (random phage display library) [SEQ ID NO: 10, B11 peptide with additional cysteine residue at the amino terminus]” here?
A: maintained binding properties

Q: With “ISLTEWSMWYRH (random phage display library) [B11 peptide, dodecamer peptide mimotope of ManLAM]” as the substance, how does the “decrease in OD in competitive ELISA vs. ManLAM” value [4] read?
A: 100%

Q: And the “anti-peptide antibody titers in BCG-vaccinated individuals vs. TB patients” value ([5]; BCG-vaccinated (n=10), p<0.001)?
A: significantly lower

Q: What about the “antigen-binding antibody titers in sera of TB patients vs. healthy individuals” value ([5]; TB patients (n=16) vs. healthy individuals (n=36)) of the same substance?
A: Significantly higher titers

Q: What about the “IgG Abs in sera of Mtb-infected mice binding the antigen, vs. naive mice” value [3] of the same substance?
A: significantly higher

Q: What about the “binding to CS40 mAb by direct ELISA” value [6] of the same substance?
A: bound
